Results taken from patent US20250282768A1 (Janssen Pharmaceutica NV, priority 2022, published 2025).

Test system: p-IKKa levels in L363 (NIK translocated multiple myeloma) cells
Experiment: Assay 2: Effect of compounds on p-IKKa levels in L363 (NIK translocated multiple myeloma) cells
Assay type: cell-based
Conditions: Homo sapiens, L-363, 6 h, read-out: Assay 2 IC50 (nM), p-IKKa (Ser 176/180) in BAFF stimulated L363 cells with MG132, 6 h; average if tested more than once
Summary of the method: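 Read-out is p-IKKa Ser176/180 by AlphaLISA SureFire in lysates. Cells were BAFF-primed (250 ng/ml) overnight or left unstimulated, then exposed 6 h at 37 °C to compound with MG132 (10 μM), 0.3% DMSO. IC50 from sigmoidal curve fit, normalized between stimulated and unstimulated controls.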

Structure (SMILES) | IC50 [nM]
C[C@@H](O)[C@@H](Nc1nccc(-c2cccc(-c3cc([C@]4(O)CCN(C)C4=O)on3)n2)n1)c1ccccc1 [Example 152, (R)-3-Hydroxy-3-(3-(6-(2-(((1 S,2R)-2-hydroxy-1-phenylpropyl)amino)pyrimidin-4-yl)pyridin-2-yl)isoxazol-5-yl)-1-methylpyrrolidin-2-one] | 50 to 500
CN1CC[C@@](O)(c2cc(-c3cccc(-c4ccnc(NC5CC56CCOC6)n4)n3)no2)C1=O (stereo partly drawn) [Example 350, (3R)-3-(3-(6-(2-((5-Oxaspiro[2.4]heptan-1-yl)amino)pyrimidin-4-yl)pyridin-2-yl)isoxazol-5-yl)-3-hydroxy-1-methylpyrrolidin-2-one] | > 500
CN1CC[C@@](O)(c2cc(-c3cccc(-c4ccnc(N[C@@H]5CC6CCC5O6)n4)n3)no2)C1=O (stereo partly drawn) [Example 361, (3R)-3-(3-(6-(2-(((cis)-7-Oxabicyclo[2.2.1]heptan-2-yl)amino)pyrimidin-4-yl)pyridin-2-yl)isoxazol-5-yl)-3-hydroxy-1-methylpyrrolidin-2-one] | 50 to 500
CN1CC[C@@](O)(c2cnn(-c3cccc(-c4ccnc(Nc5cnn(C)c5)n4)n3)c2)C1=O (single isomer, unassigned) [Example 76] | > 500
CO[C@@H]1COC[C@H]1Nc1nccc(-c2cccc(-c3cc([C@]4(O)CCN(C)C4=O)on3)n2)n1 [Example 354, (R)-3-Hydroxy-3-(3-(6-(2-(((3R,4S)-4-methoxytetrahydrofuran-3-yl)amino)pyrimidin-4-yl)pyridin-2-yl)isoxazol-5-yl)-1-methylpyrrolidin-2-one] | 50 to 500
Cc1ncccc1Nc1nccc(-c2cccc(-c3cc([C@]4(O)CCN(C)C4=O)on3)c2)n1 [Example 24, (R)-3-Hydroxy-1-methyl-3-(3-(3-(2-((2-methylpyridin-3-yl)amino)pyrimidin-4-yl)phenyl)isoxazol-5-yl)pyrrolidin-2-one] | 50 to 500
Cc1cc(Nc2nccc(-c3cccc(-n4cc([C@]5(O)CCN(C)C5=O)nn4)n3)n2)ccn1 [Example 191, (R)-3-Hydroxy-1-methyl-3-(1-(6-(2-((2-methylpyridin-4-yl)amino)pyrimidin-4-yl)pyridin-2-yl)-1H-1,2,3-triazol-4-yl)pyrrolidin-2-one] | < 50
CCn1cc(Nc2nccc(-c3cccc(-n4cc([C@]5(O)CCN(C)C5=O)nn4)n3)n2)c(C)n1 [Example 402, (R)-3-(1-(6-(2-((1-Ethyl-3-methyl-1H-pyrazol-4-yl)amino)pyrimidin-4-yl)pyridin-2-yl)-1H-1,2,3-triazol-4-yl)-3-hydroxy-1-methylpyrrolidin-2-one] | < 50
C[C@@H](Nc1nccc(-c2cccc(-c3cc([C@]4(O)CCN(C)C4=O)on3)n2)n1)c1ccccn1 [Example 363, (R)-3-Hydroxy-1-methyl-3-(3-(6-(2-(((R)-1-(pyridin-2-yl)ethyl)amino)pyrimidin-4-yl)pyridin-2-yl)isoxazol-5-yl)pyrrolidin-2-one] | 50 to 500
Cc1cnccc1Nc1nccc(-c2cccc(-c3cc([C@]4(O)CCN(C)C4=O)on3)n2)n1 [Example 246, (R)-3-Hydroxy-1-methyl-3-(3-(6-(2-((3-methylpyridin-4-yl)amino)pyrimidin-4-yl)pyridin-2-yl)isoxazol-5-yl)pyrrolidin-2-one] | > 500
CN1CC[C@@](O)(c2cc(-c3cccc(-c4ccnc(NC[C@@H]5CCO5)n4)n3)no2)C1=O [Example 360, (R)-3-Hydroxy-1-methyl-3-(3-(6-(2-((((S)-oxetan-2-yl)methyl)amino)pyrimidin-4-yl)pyridin-2-yl)isoxazol-5-yl)pyrrolidin-2-one] | > 500
C[C@H](Nc1nccc(-c2cccc(-c3cc([C@]4(O)CCN(C)C4=O)on3)n2)n1)c1cnc2ccccn12 (single isomer, unassigned) [Example 161] | 50 to 500
CN1CC[C@](O)(c2cn(-c3cccc(-c4ccnc(Nc5ccn(C)n5)n4)n3)cn2)C1=O (single isomer, unassigned) [Example 87] | > 500
C[C@@H](Nc1nccc(-c2cccc(-c3cc([C@]4(O)CCN(C)C4=O)on3)n2)n1)c1ncc[nH]1 [Example 369, (R)-3-(3-(6-(2-(((R)-1-(1H-Imidazol-2-yl)ethyl)amino)pyrimidin-4-yl)pyridin-2-yl)isoxazol-5-yl)-3-hydroxy-1-methylpyrrolidin-2-one] | > 500
Cc1nccc(Nc2nccc(-c3cccc(-c4cc([C@]5(O)CCN(C)C5=O)on4)n3)n2)n1 [Example 298, (R)-3-Hydroxy-1-methyl-3-(3-(6-(2-((2-methylpyrimidin-4-yl)amino)pyrimidin-4-yl)pyridin-2-yl)isoxazol-5-yl)pyrrolidin-2-one] | < 50
Cc1ccc(O)c(Nc2nccc(-c3cccc(-c4cc([C@]5(O)CCN(C)C5=O)on4)n3)n2)n1 [Example 268, (R)-3-Hydroxy-3-(3-(6-(2-((3-hydroxy-6-methylpyridin-2-yl)amino)pyrimidin-4-yl)pyridin-2-yl)isoxazol-5-yl)-1-methylpyrrolidin-2-one] | > 500

Structure (SMILES) | IC50 [nM]
[2H]C1([2H])N(C)C(=O)[C@](O)(c2cc(-c3cccc(-c4ccnc(Nc5cnn(C)c5)n4)n3)no2)C1([2H])[2H] [Example 5, (R)-3-Hydroxy-1-methyl-3-(3-(6-(2-((1-methyl-1H-pyrazol-4-yl)amino)pyrimidin-4-yl)pyridin-2-yl)isoxazol-5-yl)pyrrolidin-2-one-4,4,5,5-d4] | < 50
CN1CC[C@@](O)(c2cc(-c3cccc(-c4ccnc(NCC5CCOCC5)n4)n3)no2)C1=O [Example 340, (R)-3-Hydroxy-1-methyl-3-(3-(6-(2-(((tetrahydro-2H-pyran-4-yl)methyl)amino)pyrimidin-4-yl)pyridin-2-yl)isoxazol-5-yl)pyrrolidin-2-one] | 50 to 500
CN1CC[C@@](O)(c2cc(-c3cccc(-c4ccnc(Nc5cn(C)nn5)n4)n3)no2)C1=O [Example 65, (R)-3-Hydroxy-1-methyl-3-(3-(6-(2-((1-methyl-1H-1,2,3-triazol-4-yl)amino)pyrimidin-4-yl)pyridin-2-yl)isoxazol-5-yl)pyrrolidin-2-one] | 50 to 500
Cc1cnc(Nc2cnn(C)c2)nc1-c1cccc(-c2cc([C@]3(O)CCN(C)C3=O)on2)n1 [Example 208, (R)-3-Hydroxy-1-methyl-3-(3-(6-(5-methyl-2-((1-methyl-1H-pyrazol-4-yl)amino)pyrimidin-4-yl)pyridin-2-yl)isoxazol-5-yl)pyrrolidin-2-one] | > 500
CC(Nc1nccc(-c2cccc(-c3cc([C@]4(O)CCN(C)C4=O)on3)n2)n1)c1cocn1 (stereo partly drawn) [Example 373, (3R)-3-Hydroxy-1-methyl-3-(3-(6-(2-((1-(oxazol-4-yl)ethyl)amino)pyrimidin-4-yl)pyridin-2-yl)isoxazol-5-yl)pyrrolidin-2-one] | 50 to 500
CN1CC[C@@](O)(c2cc(-c3cccc(-c4ccnc(NC(c5ccccn5)C5CC5)n4)n3)no2)C1=O (stereo partly drawn) [Example 390, (3R)-3-(3-(6-(2-((Cyclopropyl(pyridin-2-yl)methyl)amino)pyrimidin-4-yl)pyridin-2-yl)isoxazol-5-yl)-3-hydroxy-1-methylpyrrolidin-2-one] | > 500
CC(Nc1nccc(-c2cccc(-c3cc([C@]4(O)CCN(C)C4=O)on3)n2)n1)c1cn(C)cn1 (stereo partly drawn) [Example 378, (3R)-3-Hydroxy-1-methyl-3-(3-(6-(2-((1-(1-methyl-1H-imidazol-4-yl)ethyl)amino)pyrimidin-4-yl)pyridin-2-yl)isoxazol-5-yl)pyrrolidin-2-one] | 50 to 500
Cc1nnc(C(C)Nc2nccc(-c3cccc(-c4cc([C@]5(O)CCN(C)C5=O)on4)n3)n2)o1 (stereo partly drawn) [Example 385, (3R)-3-Hydroxy-1-methyl-3-(3-(6-(2-((1-(5-methyl-1,3,4-oxadiazol-2-yl)ethyl)amino)pyrimidin-4-yl)pyridin-2-yl)isoxazol-5-yl)pyrrolidin-2-one] | 50 to 500
Cc1noc([C@@H](C)Nc2nccc(-c3cccc(-c4cc([C@]5(O)CCN(C)C5=O)on4)n3)n2)n1 (single isomer, unassigned) [Example 150] | 50 to 500
Cc1cnc(C(C)Nc2nccc(-c3cccc(-c4cc([C@]5(O)CCN(C)C5=O)on4)n3)n2)o1 (stereo partly drawn) [Example 381, (3R)-3-Hydroxy-1-methyl-3-(3-(6-(2-((1-(5-methyloxazol-2-yl)ethyl)amino)pyrimidin-4-yl)pyridin-2-yl)isoxazol-5-yl)pyrrolidin-2-one] | 50 to 500
CC(Nc1nccc(-c2cccc(-c3cc([C@]4(O)CCN(C)C4=O)on3)n2)n1)c1ncco1 (stereo partly drawn) [Example 371, (3R)-3-Hydroxy-1-methyl-3-(3-(6-(2-((1-(oxazol-2-yl)ethyl)amino)pyrimidin-4-yl)pyridin-2-yl)isoxazol-5-yl)pyrrolidin-2-one] | 50 to 500
Cc1cccnc1[C@H](C)Nc1nccc(-c2cccc(-c3cc([C@]4(O)CCN(C)C4=O)on3)n2)n1 (single isomer, unassigned) [Example 157] | > 500
COc1cccc(Nc2nccc(-c3cccc(-c4cc([C@]5(O)CCN(C)C5=O)on4)n3)n2)n1 [Example 322, (R)-3-Hydroxy-3-(3-(6-(2-((6-methoxypyridin-2-yl)amino)pyrimidin-4-yl)pyridin-2-yl)isoxazol-5-yl)-1-methylpyrrolidin-2-one] | 50 to 500
COc1cn([C@H]2C[C@H](O)C2)nc1Nc1nccc(-c2cccc(-c3cc([C@]4(O)CCN(C)C4=O)on3)n2)n1 [Example 231, (R)-3-Hydroxy-3-(3-(6-(2-((1-((1r,3r)-3-hydroxycyclobutyl)-4-methoxy-1H-pyrazol-3-yl)amino)pyrimidin-4-yl)pyridin-2-yl)isoxazol-5-yl)-1-methylpyrrolidin-2-one] | < 50
CN1CC[C@@](O)(c2cc(-c3cccc(-c4ccnc(Nc5ccn(CC6CCOCC6)n5)n4)n3)no2)C1=O [Example 270, (R)-3-Hydroxy-1-methyl-3-(3-(6-(2-((1-((tetrahydro-2H-pyran-4-yl)methyl)-1H-pyrazol-3-yl)amino)pyrimidin-4-yl)pyridin-2-yl)isoxazol-5-yl)pyrrolidin-2-one] | < 50
